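The compound was tested at five concentrations on cells cultured in 96-well plates, with a 48-hour exposure period. GI50 = concentration required for 50% inhibition of growth.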 Active and inactive are the calls of the source. Cut-off read from the data, not from the text of the source: active = GI50 up to about 1.1 µM and inactive = higher.
Legend:
Assay in all cases: NCI tumour cell line growth inhibition, 48 h
DU-145 = system: DU-145
UACC-257 = system: UACC-257
NCI-H460 = system: NCI-H460
LOX IMVI = system: LOX IMVI
MOLT-4 = system: MOLT-4
T47D = system: T47D
UACC-62 = system: UACC-62
SF-268 = system: SF-268
BT-549 = system: BT-549
MDA-N = system: MDA-N
SN12C = system: SN12C
CAKI-1 = system: CAKI-1
KM12 = system: KM12
U-251 = system: U-251
HT-29 = system: HT-29
OVCAR-3 = system: OVCAR-3
SNB-19 = system: SNB-19
NCI-H226 = system: NCI-H226
OVCAR-4 = system: OVCAR-4
OVCAR-8 = system: OVCAR-8
HCT-15 = system: HCT-15
MDA-MB-435 = system: MDA-MB-435
A549 = system: A549
NCI-H23 = system: NCI-H23
OVCAR-5 = system: OVCAR-5
MDA-MB-231 = system: MDA-MB-231
HOP-92 = system: HOP-92
K562 = system: K562
Malme-3M = system: Malme-3M
HCC 2998 = system: HCC 2998
SW-620 = system: SW-620
Hs-578T = system: Hs-578T
UO-31 = system: UO-31
RPMI-8226 = system: RPMI-8226
TK-10 = system: TK-10
SK-MEL-2 = system: SK-MEL-2
SF-539 = system: SF-539
RXF 393 = system: RXF 393
IGROV-1 = system: IGROV-1
786-0 = system: 786-0
SNB-75 = system: SNB-75
EKVX = system: EKVX
COLO 205 = system: COLO 205
A498 = system: A498
PC-3 = system: PC-3
M14 = system: M14
ACHN = system: ACHN
SF-295 = system: SF-295
MCF7 = system: MCF7
HL-60 = system: HL-60
HCT-116 = system: HCT-116
SK-MEL-5 = system: SK-MEL-5
SK-MEL-28 = system: SK-MEL-28
CCRF-CEM = system: CCRF-CEM
HOP-62 = system: HOP-62
SK-OV-3 = system: SK-OV-3
NCI-H522 = system: NCI-H522
NCI/ADR-RES = system: NCI/ADR-RES
SR = system: SR

Measured: GI50

CC1=C(C)C(=O)OC(C(C)(O)C2(O)CC3OC34C3CC(O)C56OC5C=CC(=O)C6(C)C3CCC42C)C1 (stereo not given)
inactive: DU-145 3.4 µM | UACC-257 1.6 µM | NCI-H460 1.45 µM | LOX IMVI 1.79 µM | T47D 2.99 µM | SF-268 1.64 µM | MDA-N 1.61 µM | SN12C 2.82 µM | CAKI-1 2.5 µM | KM12 2.16 µM | U-251 1.76 µM | HT-29 1.15 µM | OVCAR-3 1.19 µM | SNB-19 4.12 µM | NCI-H226 4.76 µM | OVCAR-4 4.71 µM | OVCAR-8 1.85 µM | MDA-MB-435 1.15 µM | A549 3.33 µM | NCI-H23 1.91 µM | OVCAR-5 2.39 µM | MDA-MB-231 1.78 µM | HOP-92 1.82 µM | HCC 2998 1.26 µM | SW-620 3.03 µM | Hs-578T 1.77 µM | RPMI-8226 1.24 µM | TK-10 1.5 µM | SK-MEL-2 2.59 µM | SF-539 2 µM | RXF 393 2.4 µM | IGROV-1 1.72 µM | 786-0 1.51 µM | SNB-75 3.78 µM | EKVX 2.36 µM | COLO 205 1.5 µM | A498 2.73 µM | PC-3 2.87 µM | M14 1.27 µM | SF-295 3.48 µM | MCF7 1.21 µM | HCT-116 1.38 µM | SK-MEL-5 1.67 µM | SK-MEL-28 1.41 µM | HOP-62 11 µM | SK-OV-3 3.9 µM
active: MOLT-4 0.586 µM | UACC-62 0.617 µM | BT-549 0.914 µM | K562 0.927 µM | Malme-3M 0.762 µM | UO-31 0.341 µM | ACHN 0.845 µM | HL-60 0.264 µM | CCRF-CEM 0.851 µM | NCI-H522 0.361 µM
0.791 µM: HCT-15

COC(=O)C1SC(SC)=NC12c1ccccc1Nc1ccccc12 (stereo not given)
29.4 µM: HCT-15
inactive: NCI/ADR-RES 39.9 µM | DU-145 36.4 µM | UACC-257 25.7 µM | NCI-H460 22.1 µM | LOX IMVI 18 µM | MOLT-4 22.1 µM | T47D 32.2 µM | UACC-62 16.6 µM | SF-268 37.4 µM | BT-549 24.7 µM | MDA-N 26.8 µM | SR 17.5 µM | SN12C 30.7 µM | CAKI-1 37.3 µM | KM12 41.7 µM | U-251 25.2 µM | HT-29 30.8 µM | OVCAR-3 18.2 µM | SNB-19 40.5 µM | NCI-H226 53.6 µM | OVCAR-4 32.7 µM | OVCAR-8 33.3 µM | MDA-MB-435 27 µM | A549 28.3 µM | NCI-H23 19.8 µM | OVCAR-5 54.8 µM | HOP-92 20.8 µM | K562 23.9 µM | Malme-3M 22 µM | HCC 2998 24.5 µM | SW-620 36.6 µM | Hs-578T 31.7 µM | UO-31 69.2 µM | RPMI-8226 21.2 µM | TK-10 50 µM | SK-MEL-2 21.5 µM | SF-539 17.5 µM | RXF 393 67.3 µM | IGROV-1 30.3 µM | 786-0 35.2 µM | SNB-75 51.1 µM | EKVX 30.1 µM | COLO 205 20.5 µM | A498 41.8 µM | PC-3 28.3 µM | M14 18.5 µM | ACHN 36.3 µM | SF-295 32.7 µM | MCF7 27.7 µM | HL-60 29.5 µM | HCT-116 31.7 µM | SK-MEL-5 17.2 µM | SK-MEL-28 21.1 µM | CCRF-CEM 31.8 µM | HOP-62 41.8 µM | SK-OV-3 45.8 µM | NCI-H522 19.5 µM

CC(=O)OCC(Br)C1(C)CCC(C(C)(C)Br)O1 (stereo not given)
inactive: NCI/ADR-RES > 100 µM | DU-145 > 100 µM | UACC-257 12.1 µM | NCI-H460 57.9 µM | LOX IMVI 23.1 µM | MOLT-4 73.8 µM | SF-268 > 100 µM | BT-549 79.6 µM | MDA-N 44.7 µM | SR 77.1 µM | SN12C 94.2 µM | CAKI-1 > 100 µM | KM12 39.8 µM | U-251 73.5 µM | HT-29 62.7 µM | OVCAR-3 59.2 µM | SNB-19 > 100 µM | NCI-H226 32.8 µM | OVCAR-4 11.2 µM | MDA-MB-435 69.5 µM | A549 63.8 µM | NCI-H23 65.5 µM | OVCAR-5 > 100 µM | MDA-MB-231 > 100 µM | HOP-92 20.6 µM | K562 > 100 µM | Malme-3M 83.6 µM | HCC 2998 98.6 µM | SW-620 55.6 µM | Hs-578T 17.9 µM | UO-31 39.6 µM | RPMI-8226 > 100 µM | TK-10 > 100 µM | SK-MEL-2 39.1 µM | SF-539 > 100 µM | RXF 393 51.1 µM | IGROV-1 80.2 µM | 786-0 > 100 µM | SNB-75 58.2 µM | EKVX > 100 µM | COLO 205 51.2 µM | A498 > 100 µM | PC-3 29.4 µM | M14 89.7 µM | ACHN 94.8 µM | SF-295 > 100 µM | MCF7 56.4 µM | HL-60 > 100 µM | HCT-116 46.8 µM | SK-MEL-5 35.9 µM | SK-MEL-28 79.6 µM | CCRF-CEM > 100 µM | HOP-62 > 100 µM | SK-OV-3 > 100 µM | NCI-H522 28.5 µM

COC1=CC2C(c3cc4ccccc4n3S(=O)(=O)c3ccccc3)CC1CN2C(=O)OCc1ccccc1 (stereo not given)
31.1 µM: HCT-15
inactive: NCI/ADR-RES 35.7 µM | DU-145 29.2 µM | UACC-257 34.8 µM | NCI-H460 29.5 µM | LOX IMVI 24.8 µM | UACC-62 29.8 µM | BT-549 25 µM | MDA-N 34.5 µM | SN12C 32 µM | CAKI-1 35.2 µM | KM12 26.9 µM | U-251 37.3 µM | HT-29 23.6 µM | OVCAR-3 19.5 µM | NCI-H226 27.4 µM | OVCAR-4 26.1 µM | OVCAR-8 50.8 µM | MDA-MB-435 24.2 µM | A549 20.5 µM | NCI-H23 29.7 µM | OVCAR-5 18.2 µM | MDA-MB-231 20 µM | K562 33.3 µM | Malme-3M 19.8 µM | HCC 2998 36.5 µM | SW-620 37.6 µM | Hs-578T 23.8 µM | UO-31 27.2 µM | RPMI-8226 17.2 µM | TK-10 67.1 µM | SK-MEL-2 23.6 µM | RXF 393 14.4 µM | IGROV-1 33.7 µM | 786-0 33.9 µM | SNB-75 1.6 µM | EKVX 18.9 µM | COLO 205 16.4 µM | PC-3 29.3 µM | M14 19.6 µM | ACHN 28.6 µM | SF-295 25 µM | MCF7 39.9 µM | HL-60 16.4 µM | HCT-116 28.2 µM | SK-MEL-5 25.6 µM | CCRF-CEM 29.4 µM | HOP-62 40.4 µM | SK-OV-3 28.8 µM | NCI-H522 18 µM

Source: ChEMBL document CHEMBL1201862, “PubChem BioAssay data set” (2004)
